In assay [1] the test system is Plasmodium berghei. Nature of the assay: Antiplasmodial activity against Plasmodium berghei assessed as inhibition of schizont maturation at 5 ug/ml relative to control. It is filed as functional.
A short description of assay [2]: Inhibition of Plasmodium falciparum IspD.
Assay [3] relates to Tobacco mosaic virus. Nature of the assay: In vivo antiviral activity against tobacco mosaic virus assessed as protection activity at 500 ug/ml relative to control. It is filed as functional. The conditions noted are these: dose 500 µg/ml.
The subject of assay [4] is Tobacco mosaic virus. Nature of the assay: In vivo antiviral activity against tobacco mosaic virus assessed as virus inactivation at 500 ug/ml relative to control. The following applies: dose 500 µg/ml. In kind it is functional.
Assay [5] deals with Tobacco mosaic virus. Nature of the assay: In vivo antiviral activity against tobacco mosaic virus assessed as curative activity at 500 ug/ml relative to control. It is filed as functional. The conditions noted are these: dose 500 µg/ml.
Assay [6] deals with T1, cGMP-specific 3',5'-cyclic phosphodiesterase (Homo sapiens, UniProt O76074). Nature of the assay: Inhibition of human PDE5.
Assay [7] deals with T2, Acetylcholinesterase (Electrophorus electricus, UniProt O42275). Nature of the assay: Inhibition of electric eel AChE using acetylthiocholine iodide as substrate measured after 20 mins by Ellmans method.
T2 sequence (O42275 whole entry): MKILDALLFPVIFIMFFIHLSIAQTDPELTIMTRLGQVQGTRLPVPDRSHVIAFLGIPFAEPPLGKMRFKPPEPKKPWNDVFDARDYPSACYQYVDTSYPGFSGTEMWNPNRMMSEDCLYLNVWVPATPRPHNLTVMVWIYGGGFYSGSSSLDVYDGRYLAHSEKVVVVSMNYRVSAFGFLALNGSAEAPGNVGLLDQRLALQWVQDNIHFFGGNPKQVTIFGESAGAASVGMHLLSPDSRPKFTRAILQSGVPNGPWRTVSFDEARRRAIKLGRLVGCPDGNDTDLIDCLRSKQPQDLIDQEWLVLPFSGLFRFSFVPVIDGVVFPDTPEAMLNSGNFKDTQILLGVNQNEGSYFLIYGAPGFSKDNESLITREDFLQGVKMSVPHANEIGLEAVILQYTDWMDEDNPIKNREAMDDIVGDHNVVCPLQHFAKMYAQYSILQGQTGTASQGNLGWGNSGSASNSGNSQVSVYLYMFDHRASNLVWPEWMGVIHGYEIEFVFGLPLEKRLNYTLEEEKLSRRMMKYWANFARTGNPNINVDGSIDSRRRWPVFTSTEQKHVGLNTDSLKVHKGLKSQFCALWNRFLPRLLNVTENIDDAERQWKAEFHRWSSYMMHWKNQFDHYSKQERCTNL
Assay [8] in a line: Inhibition of equine serum BuChE using S-butylthiocholine iodide as substrate measured after 20 mins by Ellmans method. Further details: species or system […].
In assay [9] the target is T2, Acetylcholinesterase. Nature of the assay: Inhibition of electric eel AChE using acetylthiocholine iodide as substrate.
The nature of assay [10]: Inhibition of equine serum BuChE using butyrylthiocholine chloride as substrate.
Assay [11] addresses T3, Protein deacetylase HDAC6 (Homo sapiens, UniProt Q9UBN7).
T3 sequence (Q9UBN7 whole entry): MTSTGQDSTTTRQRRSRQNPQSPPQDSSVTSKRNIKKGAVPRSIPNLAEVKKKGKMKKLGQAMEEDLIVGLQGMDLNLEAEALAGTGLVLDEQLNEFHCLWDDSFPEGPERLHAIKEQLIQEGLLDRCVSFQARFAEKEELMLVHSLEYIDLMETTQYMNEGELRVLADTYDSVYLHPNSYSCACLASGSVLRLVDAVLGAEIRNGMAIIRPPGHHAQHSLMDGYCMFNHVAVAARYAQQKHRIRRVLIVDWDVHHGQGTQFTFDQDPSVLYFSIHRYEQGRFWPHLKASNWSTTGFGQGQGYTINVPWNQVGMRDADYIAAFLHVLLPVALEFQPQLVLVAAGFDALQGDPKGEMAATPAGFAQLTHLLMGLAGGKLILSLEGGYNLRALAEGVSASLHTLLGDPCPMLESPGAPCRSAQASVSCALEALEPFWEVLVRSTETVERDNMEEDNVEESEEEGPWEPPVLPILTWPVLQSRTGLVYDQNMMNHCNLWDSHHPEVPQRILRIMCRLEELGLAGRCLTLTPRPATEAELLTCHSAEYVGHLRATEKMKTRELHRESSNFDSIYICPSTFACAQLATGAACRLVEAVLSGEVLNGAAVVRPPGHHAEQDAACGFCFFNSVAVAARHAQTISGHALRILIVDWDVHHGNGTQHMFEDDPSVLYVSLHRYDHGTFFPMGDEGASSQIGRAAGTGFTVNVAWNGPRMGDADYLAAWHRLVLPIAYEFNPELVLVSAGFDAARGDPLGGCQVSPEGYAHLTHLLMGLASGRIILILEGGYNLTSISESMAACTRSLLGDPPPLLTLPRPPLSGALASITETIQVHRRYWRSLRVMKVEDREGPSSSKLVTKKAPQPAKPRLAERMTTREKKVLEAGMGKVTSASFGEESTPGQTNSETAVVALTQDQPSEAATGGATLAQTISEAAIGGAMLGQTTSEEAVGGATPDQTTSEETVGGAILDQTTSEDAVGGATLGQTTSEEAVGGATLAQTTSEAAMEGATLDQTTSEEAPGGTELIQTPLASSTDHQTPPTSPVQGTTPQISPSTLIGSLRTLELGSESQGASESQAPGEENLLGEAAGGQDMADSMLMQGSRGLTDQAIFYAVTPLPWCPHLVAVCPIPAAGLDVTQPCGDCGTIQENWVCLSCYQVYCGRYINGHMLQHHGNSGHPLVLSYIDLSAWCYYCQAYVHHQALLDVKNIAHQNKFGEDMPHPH
Nature of the assay: Inhibition of human HDAC6.

In assay [12] the target is Histone deacetylase 1 (Homo sapiens, UniProt Q13547). Nature of the assay: Inhibition of human HDAC1.
Histone deacetylase 1, sequence (Q13547 whole entry): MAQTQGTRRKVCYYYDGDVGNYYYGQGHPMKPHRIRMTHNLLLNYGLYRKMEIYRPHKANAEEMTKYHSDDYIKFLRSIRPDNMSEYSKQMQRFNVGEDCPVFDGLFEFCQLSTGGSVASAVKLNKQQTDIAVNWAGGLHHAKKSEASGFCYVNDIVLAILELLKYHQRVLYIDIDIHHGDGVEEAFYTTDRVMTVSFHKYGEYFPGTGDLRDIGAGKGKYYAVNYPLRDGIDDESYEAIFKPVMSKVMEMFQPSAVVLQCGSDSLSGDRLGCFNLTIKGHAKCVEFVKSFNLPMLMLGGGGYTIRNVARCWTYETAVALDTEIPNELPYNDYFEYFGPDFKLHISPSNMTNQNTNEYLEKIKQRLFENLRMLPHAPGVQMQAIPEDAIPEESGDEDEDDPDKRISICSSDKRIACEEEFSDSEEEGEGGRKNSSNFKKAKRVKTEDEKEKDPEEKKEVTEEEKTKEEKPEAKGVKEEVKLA
The target in assay [13] is T1, cGMP-specific 3',5'-cyclic phosphodiesterase. Nature of the assay: Inhibition of human PDE5A using fluorescence-labelled substrate.
Assay [14] concerns the target Amyloid-beta precursor protein (Homo sapiens) (UniProt P05067). Nature of the assay: Inhibition of self-induced amyloid beta (1 to 42 ) (unknown origin) aggregation at 20 uM measured after 24 hrs by thioflavin-T fluorescence method relative to control.
The subject of assay [15] is Gaeumannomyces graminis. Nature of the assay: Antifungal activity against Gaeumannomyces graminis at 10 mg/ml relative to control. It is filed as functional.
Assay [16] relates to Gaeumannomyces graminis. Nature of the assay: Antifungal activity against Gaeumannomyces graminis. It is filed as functional, organism-based.
Assay [17] deals with T4, Kinesin-like protein KIF11 (Homo sapiens, UniProt P52732).
T4 sequence (P52732 whole entry): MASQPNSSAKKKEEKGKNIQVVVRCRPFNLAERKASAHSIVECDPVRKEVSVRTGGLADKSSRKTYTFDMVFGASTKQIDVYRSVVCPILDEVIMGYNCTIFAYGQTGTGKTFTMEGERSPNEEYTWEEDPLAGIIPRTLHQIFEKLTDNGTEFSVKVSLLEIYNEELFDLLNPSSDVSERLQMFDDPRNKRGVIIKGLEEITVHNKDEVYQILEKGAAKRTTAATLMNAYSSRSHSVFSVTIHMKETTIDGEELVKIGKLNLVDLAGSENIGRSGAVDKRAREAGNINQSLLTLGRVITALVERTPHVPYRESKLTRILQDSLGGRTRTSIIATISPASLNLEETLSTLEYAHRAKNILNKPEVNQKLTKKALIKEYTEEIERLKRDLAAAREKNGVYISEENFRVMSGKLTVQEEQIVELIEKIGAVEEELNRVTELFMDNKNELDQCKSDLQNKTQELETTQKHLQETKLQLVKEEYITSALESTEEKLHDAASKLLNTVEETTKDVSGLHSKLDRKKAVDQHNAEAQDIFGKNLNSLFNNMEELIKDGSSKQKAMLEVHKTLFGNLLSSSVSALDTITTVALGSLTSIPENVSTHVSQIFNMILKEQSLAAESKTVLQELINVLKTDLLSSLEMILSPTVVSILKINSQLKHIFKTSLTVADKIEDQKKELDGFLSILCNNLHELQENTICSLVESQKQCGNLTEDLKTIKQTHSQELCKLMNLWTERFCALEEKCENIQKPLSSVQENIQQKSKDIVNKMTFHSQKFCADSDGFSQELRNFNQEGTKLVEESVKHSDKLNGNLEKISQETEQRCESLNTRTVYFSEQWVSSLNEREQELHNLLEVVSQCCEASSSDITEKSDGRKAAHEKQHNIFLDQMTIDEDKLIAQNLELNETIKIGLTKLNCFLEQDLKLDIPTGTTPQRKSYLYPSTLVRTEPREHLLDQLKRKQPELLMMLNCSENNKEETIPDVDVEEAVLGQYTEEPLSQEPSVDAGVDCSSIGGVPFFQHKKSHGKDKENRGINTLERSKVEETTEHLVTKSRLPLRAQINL
Nature of the assay: Inhibition of Eg5 ATPase activity (unknown origin).

For assay [18], the target named is T1, cGMP-specific 3',5'-cyclic phosphodiesterase. Nature of the assay: Inhibition of PDE5 (unknown origin).

pIC50: −log10 of the molar value. In brackets after ≈: the same amount, converted by molar mass.

Amyloid-beta precursor protein (Homo sapiens), sequence (P05067 whole entry): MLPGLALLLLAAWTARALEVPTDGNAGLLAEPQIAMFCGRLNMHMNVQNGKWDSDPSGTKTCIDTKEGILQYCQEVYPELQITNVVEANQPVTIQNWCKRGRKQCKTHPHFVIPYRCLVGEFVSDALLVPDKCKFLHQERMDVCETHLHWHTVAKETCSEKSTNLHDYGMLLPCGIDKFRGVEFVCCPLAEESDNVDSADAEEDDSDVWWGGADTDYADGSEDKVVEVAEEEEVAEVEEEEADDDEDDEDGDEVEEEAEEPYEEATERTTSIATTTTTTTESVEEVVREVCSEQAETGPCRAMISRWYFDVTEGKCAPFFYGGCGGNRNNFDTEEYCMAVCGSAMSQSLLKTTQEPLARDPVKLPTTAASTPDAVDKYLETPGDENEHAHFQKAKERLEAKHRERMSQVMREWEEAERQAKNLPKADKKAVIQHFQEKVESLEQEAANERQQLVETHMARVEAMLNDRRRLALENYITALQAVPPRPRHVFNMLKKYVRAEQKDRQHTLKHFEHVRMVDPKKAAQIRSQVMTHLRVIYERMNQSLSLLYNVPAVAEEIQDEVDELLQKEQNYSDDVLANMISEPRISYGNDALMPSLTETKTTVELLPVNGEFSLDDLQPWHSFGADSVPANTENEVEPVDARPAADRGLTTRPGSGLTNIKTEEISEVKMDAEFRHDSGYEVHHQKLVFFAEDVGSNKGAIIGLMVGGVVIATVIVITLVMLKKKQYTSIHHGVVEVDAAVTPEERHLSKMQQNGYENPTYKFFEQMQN

With `COC(=O)[C@@H]1Cc2c([nH]c3ccccc23)[C@@H](c2cccnc2)N1`, the inhibition (commonly the percentage by which the read-out fell short of the control) at 5 µg/mL in assay [1] came out at 86.2%.

Turning to `O=C(O)[C@@H]1Cc2c([nH]c3ccccc23)[C@@H](c2ccc(Cl)cc2Cl)N1`, the pIC50 (as a rule, the negative decadic logarithm of the IC50, by convention in mol/L) in [2] was 6.68.

On to `CC1N[C@@H](C(=O)N/N=C/c2ccc(Cl)cc2)Cc2c1[nH]c1ccccc21` (stereo partly drawn), for which the Activity in assay [3] was determined as 64.2%; in assay [4] it was 70.4%; in [5] it was 71.5%.

For the compound `CCOC(=O)[C@H]1Cc2c([nH]c3ccccc23)[C@H](C)N1`, the Activity in [3] was found to be 47.9%; in [4] it was 50.4%; in assay [5] it was 43.9%.

In the case of `COC(=O)c1cc2c(cn1)[nH]c1ccccc12` [BETA-CCM], the pIC50 in [6] was 6.10.

Regarding `c1ccc2c(NCCCCCCCN3CCc4c([nH]c5ccccc45)C3)c3c(nc2c1)CCCC3`, the results for the negative-log IC50 (pIC50) in [7] and in assay [8] were 7.76 and 8.50, respectively.

On to `CC1c2[nH]c3ccccc3c2CCN1C(=O)/C=C/c1ccc(O)c(O)c1` (stereo not drawn), for which the pIC50 in assay [9] was 4.67; in assay [10] it was 5.88.

In turn, `CN1C(=O)C2CN(Cc3c2c2ccccc2n3Cc2ccc(C(=O)NO)cc2)C1=O` (stereo not drawn) had a pIC50 in assay [11] of 9.15.

As for `CC1N[C@@H](C(=O)N/N=C/C2CCCCC2)Cc2c1[nH]c1ccccc21` (stereo partly drawn), the Activity in assay [3] is reported as 69.2%; in assay [4], 75.8%; in assay [5], 62.8%.

Turning to `O=C(CCCCN1CCc2c([nH]c3ccccc23)C1)Oc1ccc(/C=C2/CCc3nc4ccccc4c(=O)n32)cc1`, the pIC50 in assay [7] is 8.97.

Regarding `O=C(Cc1cnc(N2CCC(CN3CC(=O)N4[C@H](c5ccc6c(c5)OCO6)c5[nH]c6ccccc6c5C[C@@H]4C3=O)CC2)nc1)NO`, the pIC50 is 6.71 in assay [12], 6.62 in [11] and 6.19 in assay [13].

As for `C[C@@H]1N[C@@H](C(=O)NN)Cc2c1[nH]c1ccccc21`, the Activity came out at 59.5% in assay [3], 64.2% in assay [4] and 57.2% in [5].

In the case of `CC1N[C@H](C(=O)N/N=C/c2ccc(Cl)cc2)Cc2c1[nH]c1ccccc21` (stereo partly drawn), the Activity in assay [3] is 68.1%; in assay [4], 66.9%; in [5] it was 63.2%.

Regarding `CCCCOC(=O)[C@H]1Cc2c([nH]c3ccccc23)[C@H](C)N1`, the Activity was 43.2% in assay [3], 51.3% in assay [4] and 42.2% in assay [5].

Turning to `COc1ccc2[nH]c3c(c2c1)CCN(C(=O)/C=C/c1ccc(O)c(O)c1)C3C` (stereo not drawn), the pIC50 in assay [9] is 4.12; in [10], 5.19. This compound had an inhibition in [14] of 65%.

The compound `C[C@@H]1N[C@H](C(=O)Nc2ccccc2C2=N[C@@H](C)CO2)Cc2c1[nH]c1ccccc21` registered an inhibition at 10000 µg/mL in assay [15] of 65.8%.

Compound `O=C(CCCCCCN1CC(=O)N2[C@H](c3ccc(Br)cc3)c3[nH]c4ccccc4c3C[C@@H]2C1=O)NO` had a negative-log IC50 (pIC50) in assay [13] of 7.34.

Consider `COC(=O)[C@@H]1Cc2c([nH]c3ccccc23)[C@@H](c2ccc3c(c2)OCO3)N1`, for which the inhibition at 5 µg/mL in assay [1] amounted to 71.8%.

For the compound `C[C@@H]1COC(c2ccccc2NC(=O)[C@@H]2Cc3c([nH]c4ccccc34)[C@H](C)N2)=N1`, the midpoint of the response in assay [16], the EC50, lay at 3.53 µg/mL (≈ 9.09 µM). In assay [15], this compound displayed an inhibition at 10000 µg/mL of 72.2%.

In turn, `CCCCN1C(=O)[C@@H]2Cc3c([nH]c4ccccc34)[C@@H](c3cccc(O)c3)N2C1=O` gave a pIC50 in assay [17] of 5.37.

`CNCC(=O)N[C@@H](CO)C(=O)N[C@H]1[C@H](O)[C@@H](O)[C@H](n2ccc(N)nc2=O)O[C@@H]1C(N)=O` [NINGNANMYCIN]: the Activity stood at 55% in assay [3], 57.3% in assay [4] and 54.2% in [5].

The compound `COc1cccc2c1C(=O)N1CCc3c([nH]c4cccc(OC)c34)[C@@H]1C2C` (stereo partly drawn) showed a pIC50 in [18] of 7.46.
